Assay results as given in patent US11433087B2, “Anti-tumor compound with high CD169 affinity, method thereof, and use thereof” (Xiamen Nuokangde Biological Technology Co., Ltd., priority 2017, dated 2022).

Tests used:
[1] = tested on: human malignant glioma cells (U87); assay: Toxicity in cells (counting dead cells, cell survival rate); format: cell-based; conditions: U87, different concentrations 0-100 μmol, 24 hours; FIG. 4
Description: Culturing human malignant glioma cells (U87) in the constant temperature incubator containing 5% CO2 at 37° C., and a seventh medium of the human malignant glioma cells is DMEM containing 10% fetal bovine serum;
Transferring the human malignant glioma cells to a confocal cell culture dish, culturing to a density of 50%, removing the seventh medium, adding an eighth medium comprising TCC-Neu5Ac of different concentrations from 0 to 100 μmol (100 μM), and further culturing for 24 hours; and
Removing the eighth medium comprising TCC-Neu5Ac, washing carefully with PBS for three times, adding a ninth medium, and counting dead cells of the human malignant glioma cells.
Counting results of the dead cells are shown in FIG. 4, wherein abscissa represents different concentrations of TCC Neu5Ac in the eight medium, and ordinate represents a cell survival rate of the human malignant glioma cells. […] Therefore, the anti-tumor compound with high CD169 affinity of the present disclosure has extremely low toxicity in the cells and has potential ability for human tumor treatment.

B16F10 cells [2] = assay: Phagocytic effects of macrophages (BMDM) on tumor cells, lactate dehydrogenase cytotoxicity test kit; format: cell-based, mouse; conditions: BMDM and B16F10 cells 5:1; compared with control group medium added with Neu5Ac; FIG. 5
Description: Taking out bone marrow of 10 week old mice, adding with a solution of potassium ammonium chloride (ACK), and then culturing cells of the bone marrow in an Iscove's modified dulbecco medium (IMDM) comprising 10% (volume ratio) fetal bovine serum (FBS) and 10 ng/mL macrophage […] stimulating factor to obtain bone marrow derived macrophages (BMDM). Culturing BMDM and B16F10 cells of a ratio of 5:1 respectively in an experimental group medium and a control group medium. Adding TCC-Neu5Ac to the experimental group medium, adding Neu5Ac of the same volume to the control group medium, detecting by Lactate dehydrogenase cytotoxicity test kit, selecting a 490 nm absorption peak in a microplate reader, and converting to phagocytic killing efficiency.

B16F10 cells [3] = assay: Anti-tumor effects in tumor-bearing mice injected with the compound; format: in vivo, mice B6 (C57BL/6); conditions: subcutaneous B16F10 in C57BL/6 mice; tail vein injection of 100 mL PBS, 100 μmol, every two days, 15 days; versus 100 μmol natural sialic acid; FIG. 6-9
Description: Culturing B16F10 cells in a 10 cm cell culture dish to a density of 80%;
Digesting with 2 mL tyrisin for 90 seconds, neutralizing with 2 mL medium, centrifuging under 300 g for 3 minutes, rinsing with PBS repeatedly, centrifuging once to remove any remaining medium, and adding PBS to resuspend and count an amount of the B16F10 cells;
Injecting subcutaneously 1 million of the B16F10 cells into mice B6 (C57BL/6) for tumor planting, and then injecting […] PBS comprising the anti-tumor compound of the present disclosure with a concentration of 100 μmol from a tail vein of mice every two days as an experimental group 1;
Injecting PBS of the same volume comprising 100 μmol natural sialic acid as a control group 1, and the other conditions of the control group 1 are the same as the experimental group 1; and
After 15 days, removing hair from tumor areas of the mice, taking pictures (as shown in FIG. 6 and FIG. 7), taking out tumors from the mice, and taking pictures for analysis.

B16F10 cells [4] = assay: Anti-tumor effects in tumor-bearing mice orally administrated with the compound; format: in vivo, B6 mice (C57BL/6); conditions: subcutaneous B16F10 in C57BL/6 mice; oral 200 μL aqueous solution, 100 μmol, daily, 15 days; versus natural sialic acid; FIG. 10-13
Description: Culturing B16F10 cells in a 10 cm cell culture dish to a density of 80%, digesting with 2 mL tyrisin for 90 seconds, neutralizing with 2 mL medium, centrifuging under 300 g for 3 minutes, rinsing with PBS repeatedly, centrifuging once to remove any residual medium, adding PBS to resuspend and count an amount of the B16F10 cells, and injecting subcutaneously 1 million of the B16F10 cells into the of B6 mice (C57BL/6) for tumor planting;
Feeding 200 μL of an aqueous solution comprising the 100 μmol of the anti-tumor compound with high CD169 affinity of the present disclosure daily as an experimental group 2;
Feeding water solution with the same volume comprising natural sialic acid as a control group 2; and
After 15 days, removing hair from tumor areas of the B6 mice, taking pictures, taking out tumors from the B6 mice, and taking pictures for analysis.

B16F10 cells [5] = assay: Tumor metastasis analysis model in mice; format: in vivo, B6 mice (C57BL/6); conditions: B16F10 injected from tail veins in C57BL/6 mice; 200 μL, 100 μmol, tail vein every two days, 15 days; versus 100 μmol natural sialic acid (Neu5Ac); FIG. 14
Description: Culturing B16F10 cells in a 10 cm cell culture dish to a density of 80%, digesting with 2 mL tyrisin for 90 seconds, neutralizing with 2 mL medium, centrifuging under 300 g for 3 minutes, rinsing with PBS repeatedly, centrifuging once to remove any residual medium, and adding PBS to resuspend and count an amount of the B16F10 cells.
Injecting 1 million of the B16F10 cells into B6 mice (C57BL/6) from tail veins for preparing a tumor metastasis analysis model. Then, injecting 200 μL of an aqueous solution comprising the 100 μmol of the anti-tumor compound with high CD169 affinity of the present disclosure every two days from tail veins as an experimental group 3, and injecting water solution with the same volume comprising 100 μmol of natural sialic acid (Neu5Ac) as a control group 3. After 15 days, removing hair from tumor areas of the B6 mice and taking pictures. Then, taking out tumors from the B6 mice and taking pictures for analysis. An ordinate position of a black solid circle indicates a number of the tumors transferred to lungs of a mouse of the experimental group 3. An ordinate position of one black solid square indicates a number of the tumors transferred to lungs of a mouse of the control group 3. It can be seen from FIG. 14 that the number of the tumors transferred to the lungs in the experimental group 3 is far lower than that in the control group 3. […]

CC(=O)N[C@@H]1C(O)C[C@](O)(C(=O)O)OC1C(O)C(O)CNC(=O)c1cc2c(s1)-c1ccccc1OC2 (some centres unmarked) [TCC-Neu5Ac, 9-benzopyranothiophene-n-acetylneuraminic acid monosaccharide]
cell survival rate of the human malignant glioma cells [1]: does not differ much | killing rate of phagocytes to tumors (B16F10 cells [2]): significantly higher | sizes of the tumors (B16F10 cells [3]): significantly smaller | sizes of the tumors (B16F10 cells [4]): significantly smaller | number of the tumors transferred to the lungs (B16F10 cells [5]): far lower
